pEC50: −log10 of the molar value. Structures can show the parent of a compound that is named as a salt.
How the values were obtained:
Format in all cases: cell-based
adenosine A1 receptor = adenosine A1 receptor (Homo sapiens (Human), UniProt P30542); assay: Indirect determination of adenosine agonism by gene expression (luciferase reporter), A1 cells; conditions: CHO cells stably transfected with adenosine A1 receptor; 1 μM forskolin; 50% inhibition of luciferase response
Source text: (§1) B-1. Indirect Determination of the Adenosine Agonism by Way of Gene Expression
(§2) Cells of the CHO (Chinese Hamster Ovary) permanent line are transfected stably with the cDNA for the adenosine receptor subtypes A1, A2a and A2b. The adenosine A1 receptors are coupled to the adenylate cyclase by way of Gi proteins, while the adenosine A2a and A2b receptors are coupled by way of Gs proteins. In correspondence with this, the formation of cAMP in the cell is inhibited or stimulated, respectively. After that, expression of the luciferase is modulated by way of a cAMP-dependent promoter. The luciferase test is optimized, with the aim of high sensitivity and reproducibility, low variance and good suitability for implementation on a robot system, by varying several test parameters, such as cell density, duration of the growth phase and the test incubation, forskolin concentration and medium composition. The following test protocol is used for pharmacologically characterizing cells and for the robot-assisted substance screening:
(§3) The stock cultures are grown, at 37° C. and under 5% CO2, in DMEM/F12 medium containing 10% FCS (fetal calf serum) and in each case split 1:10 after 2-3 days. Test cultures are seeded in 384-well plates with 2000 cells per well and grown at 37° C. for approx. 48 hours. The medium is then replaced with a physiological sodium chloride solution (130 mM sodium chloride, 5 mM potassium chloride, 2 mM calcium chloride, 20 mM HEPES, 1 mM magnesium chloride hexahydrate, 5 mM sodium bicarbonate, pH 7.4). The substances to be tested, which are dissolved in DMSO, are pipetted into the test cultures (maximum final concentration of DMSO in the test mixture: 0.5%) in a dilution series of from 5×10^−11 M to 3×10^−6 M (final concentration). 10 minutes later, forskolin is added to the A1 cells and all the cultures are subsequently incubated at 37° C. for four hours. After that, 35 μl of a solution which is composed of 50% lysis reagent (30 mM disodium hydrogenphosphate, 10% glycerol, 3% TritonX100, 25 mM TrisHCl, 2 mM dithiotreitol (DTT), pH 7.8) and 50% luciferase substrate solution (2.5 mM ATP, 0.5 mM luciferin, 0.1 mM coenzyme A, 10 mM tricine, 1.35 mM magnesium sulfate, 15 mM DTT, pH 7.8) are added to the test cultures, which are shaken for approx. 1 minute and the luciferase activity is measured using a camera system. The EC50 values are determined, i.e., the concentrations at which 50% of the luciferase response is inhibited in the case of the A1 cell, and, respectively, 50% of the maximum stimulation with the corresponding substance is achieved in the case of the A2b and A2a cells. […] Pharmacol., 357, 1-9 (1998)].
(§4) Table A below lists the EC50 values of representative working examples for the receptor stimulation on adenosine A1, A2a and A2b receptor subtypes: […]

adenosine A2a receptor = adenosine A2a receptor (Homo sapiens (Human), UniProt P29274); assay: Indirect determination of adenosine agonism by gene expression (luciferase reporter), A2a cells; conditions: CHO cells stably transfected with adenosine A2a receptor, 50% of maximum stimulation
adenosine A2a receptor, sequence (P29274 whole entry): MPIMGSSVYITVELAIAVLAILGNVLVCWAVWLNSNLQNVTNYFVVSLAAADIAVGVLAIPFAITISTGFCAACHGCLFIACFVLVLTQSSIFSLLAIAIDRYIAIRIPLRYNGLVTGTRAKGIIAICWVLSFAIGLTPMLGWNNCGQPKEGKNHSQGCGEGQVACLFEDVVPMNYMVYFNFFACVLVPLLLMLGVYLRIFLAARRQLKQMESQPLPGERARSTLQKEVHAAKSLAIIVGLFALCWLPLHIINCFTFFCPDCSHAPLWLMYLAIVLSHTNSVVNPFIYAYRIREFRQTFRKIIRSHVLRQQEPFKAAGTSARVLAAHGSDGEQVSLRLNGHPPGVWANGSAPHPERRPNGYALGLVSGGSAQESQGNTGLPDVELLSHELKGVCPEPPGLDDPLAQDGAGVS
Source text: as §1, §2, §3, §4

adenosine A2b receptor = adenosine A2b receptor (Homo sapiens (Human), UniProt P29275); assay: Indirect determination of adenosine agonism by gene expression (luciferase reporter), A2b cells; conditions: CHO cells stably transfected with adenosine A2b receptor, 50% of maximum stimulation
adenosine A2b receptor, sequence (P29275 whole entry): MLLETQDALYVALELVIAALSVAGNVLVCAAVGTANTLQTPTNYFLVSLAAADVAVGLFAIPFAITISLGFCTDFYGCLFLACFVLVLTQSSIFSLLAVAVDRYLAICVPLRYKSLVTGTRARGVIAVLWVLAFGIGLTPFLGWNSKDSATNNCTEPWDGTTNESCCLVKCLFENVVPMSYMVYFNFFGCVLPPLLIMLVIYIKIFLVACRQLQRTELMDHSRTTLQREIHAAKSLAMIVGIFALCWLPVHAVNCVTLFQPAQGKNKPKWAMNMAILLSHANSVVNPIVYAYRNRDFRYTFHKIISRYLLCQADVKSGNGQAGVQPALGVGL
Source text: as §1, §2, §3, §4

adenosine A1 receptor, sequence (P30542 whole entry): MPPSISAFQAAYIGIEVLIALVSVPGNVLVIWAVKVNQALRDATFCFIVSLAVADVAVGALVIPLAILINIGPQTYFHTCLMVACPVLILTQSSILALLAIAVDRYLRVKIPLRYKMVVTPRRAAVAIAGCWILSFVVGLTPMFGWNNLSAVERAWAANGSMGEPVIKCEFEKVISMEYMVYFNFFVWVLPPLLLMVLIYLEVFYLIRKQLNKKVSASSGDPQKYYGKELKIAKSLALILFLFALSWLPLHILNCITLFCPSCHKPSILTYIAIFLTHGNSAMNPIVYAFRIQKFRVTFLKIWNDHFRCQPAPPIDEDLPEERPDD

SMILES | EC50 (adenosine A1 receptor) | pEC50 (adenosine A2a receptor) | pEC50 (adenosine A2b receptor)
CNC(=O)c1cc(C(C)Sc2nc(N)c(C#N)c(-c3ccc(OCC(F)(F)F)cc3)c2C#N)ccn1 (racemic) [Example 56, rac-4-[1-({6-Amino-3,5-dicyano-4-[4-(2,2,2-trifluoroethoxy)phenyl]pyridin-2-yl}sulfanyl)ethyl]-N-methylpyridine-2-carboxamide] | 2.8 nM | ≤ 5.52 | ≤ 5.52
CC(Sc1nc(N)c(C#N)c(-c2ccc(OCCO)cc2)c1C#N)c1cccc(C(N)=O)c1 (racemic) [Example 60, rac-3-[1-({6-Amino-3,5-dicyano-4-[4-(2-hydroxyethoxy)phenyl]pyridin-2-yl}sulfanyl)ethyl]-benzenecarboxamide] | 0.4 nM | ≤ 5.52 | 5.84
CNC(=O)c1cccc(C(C)Sc2nc(N)c(C#N)c(-c3ccc(OCCO)cc3)c2C#N)c1 (racemic) [Example 62, rac-3-[1-({6-Amino-3,5-dicyano-4-[4-(2-hydroxyethoxy)phenyl]pyridin-2-yl}sulfanyl)ethyl]-N-methylbenzenecarboxamide] | 0.3 nM | ≤ 5.52 | 6.58
CNC(=O)c1cc(CSc2nc(N)c(C#N)c(-c3ccc(F)cc3)c2C#N)ccn1 [Example 2] | 0.3 nM |  | 
CNC(=O)c1cc(CSc2nc(N)c(C#N)c(-c3ccc(OC)cc3)c2C#N)ccn1 [Example 3] | 0.2 nM | 6.37 | 
CNC(=O)c1cc(CSc2nc(N)c(C#N)c(-c3ccc4c(c3)OCCO4)c2C#N)ccn1 [Example 6] | 0.06 nM |  | 7.15
CNC(=O)c1cc(CSc2nc(N)c(C#N)c(-c3ccc(OCC(C)(C)O)cc3)c2C#N)ccn1 [Example 7] | 0.1 nM | 6.34 | 7.49
N#Cc1c(N)nc(SCc2cccc(C(=O)O)c2)c(C#N)c1-c1ccc(F)cc1 [Example 14, 3-({[6-amino-3,5-dicyano-4-(4-fluorophenyl)pyridin-2-yl]sulfanyl}methyl)-benzenecarboxylic acid] | 3.5 nM |  | 
N#Cc1cnc(SCc2cccc(C(=O)O)c2)c(C#N)c1-c1ccccc1 [Example 15] | 0.8 nM |  | 6.97
CNC(=O)c1cc(COc2nc(N)c(C#N)c(-c3ccc(F)cc3)c2C#N)ccn1 [Example 21, 4-({[6-Amino-3,5-dicyano-4-(4-fluorophenyl)pyridin-2-yl]oxy}methyl)-N-methylpyridine-2-carboxamide] | 0.9 nM |  | 
CCOc1ccc(-c2c(C#N)c(N)nc(SCc3ccnc(C(=O)NC)c3)c2C#N)cc1 [Example 26] | 0.2 nM | 7.19 | 6.61
CNC(=O)c1cc(CSc2nc(N)c(C#N)c(-c3ccc(F)c(OC)c3)c2C#N)ccn1 [Example 27] | 0.3 nM |  | 
CNC(=O)c1cc(CSc2nc(N)c(C#N)c(-c3ccc(NC)cc3)c2C#N)ccn1 [Example 28] | 0.4 nM | 5.79 | 
CNC(=O)c1cc(CSc2nc(N)c(C#N)c(-c3cccc(OCCO)c3)c2C#N)ccn1 [Example 29] | 0.5 nM |  | 
CNC(=O)c1cc(CSc2ncc(C#N)c(-c3ccc(OCCO)cc3)c2C#N)ccn1 [Example 30] | 0.4 nM | 5.95 | 6.91
CNC(=O)c1cc(CSc2ncc(C#N)c(-c3ccc(OC)cc3)c2C#N)ccn1 [Example 31] | 1.6 nM | 6.15 | 6.15
CNC(=O)c1cc(CSc2ncc(C#N)c(-c3ccccc3)c2C#N)ccn1 [Example 32] | 0.4 nM |  | 5.67
CS(=O)(=O)Nc1cccc(CSc2nc(N)c(C#N)c(-c3ccc(F)cc3)c2C#N)c1 [Example 37] | 0.7 nM | 5.75 | 
CS(=O)(=O)Nc1cccc(CSc2nc(N)c(C#N)c(-c3ccc(F)c(F)c3)c2C#N)c1 [Example 38] | 0.5 nM |  | 
CNC(=O)c1cc(CSc2nc(N)c(C#N)c(-c3ccc(OC)cc3OC)c2C#N)ccn1 [Example 44] | 0.4 nM |  | 

SMILES | EC50 (adenosine A1 receptor) | pEC50 (adenosine A2a receptor) | pEC50 (adenosine A2b receptor)
CNC(=O)c1cc(CSc2nc(N)c(C#N)c(-c3ccc(OS(=O)(=O)N(C)C)cc3)c2C#N)ccn1 [Example 46] | 0.04 nM | 6.11 | 6.37
CCCOc1cccc(-c2c(C#N)c(N)nc(SCc3ccnc(C(=O)NC)c3)c2C#N)c1 [Example 49] | 0.3 nM |  | 
CNC(=O)c1cc(CSc2nc(N)c(C#N)c(-c3ccc(F)c(C(F)(F)F)c3)c2C#N)ccn1 [Example 50] | 0.5 nM |  | 
CNC(=O)c1cc(CSc2nc(N)c(C#N)c(-c3cc(F)cc(F)c3)c2C#N)ccn1 [Example 51] | 0.2 nM |  | 
CNC(=O)c1cc(CSc2nc(N)c(C#N)c(-c3ccc(F)c(F)c3)c2C#N)ccn1 [Example 53] | 0.3 nM |  | 
CNC(=O)c1cc(CSc2nc(N)c(C#N)c(-c3ccc(OCCN)cc3)c2C#N)ccn1 [Example 54, 4-[({6-Amino-4-[4-(2-aminoethoxy)phenyl]-3,5-dicyanopyridin-2-yl}sulfanyl)methyl]-N-methylpyridine-2-carboxamide trifluoroacetate] | 0.04 nM | 6.94 | 6.77
CNC(=O)c1cc(CSc2nc(N)c(C#N)c(-c3ccc(OCCNC(=O)[C@H](C)N)cc3)c2C#N)ccn1 [Example 55, 4-{[(4-{4-[2-(L-Alanylamino)ethoxy]phenyl}-6-amino-3,5-dicyanopyridin-2-yl)sulfanyl]methyl}-N-methylpyridine-2-carboxamide trifluoroacetate] | 0.4 nM | 6.40 | 6.57
N#Cc1cnc(SCc2cccc(C(N)=O)c2)c(C#N)c1-c1ccccc1 [Example 65, 3-{[(3,5-Dicyano-4-phenylpyridin-2-yl)sulfanyl]methyl}benzenecarboxamide] | 3.3 nM |  | 6.24
N#Cc1cnc(SCc2cccc(C(=O)NCCO)c2)c(C#N)c1-c1ccccc1 [Example 66, 3-{[(3,5-Dicyano-4-phenylpyridin-2-yl)sulfanyl]methyl}-N-(2-hydroxyethyl)benzenecarboxamide] | 1.3 nM |  | 
N#Cc1c(N)nc(OCc2ccnc(C(=O)NC3CC3)c2)c(C#N)c1-c1ccccc1 [Example 68] | 0.4 nM | 5.76 | 6.36
CNC(=O)c1cc(CSc2nc(N3CC(O)C3)c(C#N)c(-c3ccc(OC)cc3)c2C#N)ccn1 [Example 72] | 0.5 nM |  | 
CNC(=O)c1cc(CSc2nc(N3CC(O)C3)c(C#N)c(-c3ccc(F)c(F)c3)c2C#N)ccn1 [Example 74] | 2.4 nM |  | 
CNC(=O)c1cc(CSc2nc(N3CC[C@@H](O)C3)c(C#N)c(-c3ccc4c(c3)OCCO4)c2C#N)ccn1 [Example 82] | 0.2 nM | 5.70 | 
CNC(=O)c1cc(CSc2nc(NCCO)c(C#N)c(-c3ccc(OC)cc3)c2C#N)ccn1 [Example 84] | 0.4 nM |  | 
N#Cc1c(SCc2ccnc(C(=O)NC3CC3)c2)nc(N2CCCC2)c(C#N)c1-c1ccccc1 [Example 85] | 0.5 nM | 5.99 | 
CNC(=O)c1cc(CSc2nc(NCC(O)C(F)(F)F)c(C#N)c(-c3ccccc3)c2C#N)ccn1 (stereo not shown) [Example 87] | 0.6 nM |  | 
CNC(=O)c1cc(CSc2nc(NCCO)c(C#N)c(-c3ccccn3)c2C#N)ccn1 [Example 88] | 0.7 nM | 5.70 | 
CNC(=O)c1cc(COc2nc(N3CC(O)C3)c(C#N)c(-c3ccccc3)c2C#N)ccn1 [Example 93, 4-({[3,5-Dicyano-6-(3-hydroxyazetidin-1-yl)-4-phenylpyridin-2-yl]oxy}methyl)-N-methylpyridine-2-carboxamide] | 0.9 nM |  | 
CNC(=O)c1cccc(CSc2nc(N3CC[C@@H](O)C3)c(C#N)c(-c3ccc(OCCO)cc3)c2C#N)c1 [Example 94, 3-[({3,5-Dicyano-4-[4-(2-hydroxyethoxy)phenyl]-6-[(3R)-3-hydroxypyrrolidin-1-yl]pyridin-2-yl}-sulfanyl)methyl]-N-methylbenzenecarboxamide] | 0.2 nM |  | 
N#Cc1c(N)nc(SCc2cccc(C(=O)NC[C@@H](O)CO)c2)c(C#N)c1-c1ccc(F)cc1 [Example 96, 3-({[6-Amino-3,5-dicyano-4-(4-fluorophenyl)pyridin-2-yl]sulfanyl}methyl)-N-[(2R)-2,3-dihydroxypropyl]benzenecarboxamide] | 0.4 nM |  | 6.69

Reference: patent publication US9187428B2, “Substituted dicyanopyridines and use thereof” (Bayer Intellectual Property GmbH, priority 2010, dated 2015)
